Patent publication US8273775B2, “Non-steroidal brassinosteroid mimetic” (priority 2006, dated 2012)

System: gene expression in Col-0 seedling shoots
Assay: Microarray analysis (ATH1 Affymetrix) after BL or abrasin treatment
Assay type: in vivo, Arabidopsis
Details: 30 min
Method: FIG. 14: Clustering of gene expression profiles by QT-clust analysis. Clusters illustrating the major patterns of the data sets. Points: BIK-30: 30 μM abrasin 30 min; BL-30: 1 μM brassinolide 30 min; DMSO-30: control DMSO 30 min; BIK-120: 30 μM abrasin 120 min; BL-120: 1 μM brassinolide 120 min; DMSO-120: control DMSO 120 min.
Col-0 seeds were germinated vertically on ½ MS medium for 7 days under 16 h light/8 h dark cycles. The seedlings were overlaid with liquid ½ MS medium containing 1 μM brassinolide (BL, Fuji Chemical Industries, Ltd., Toyama, Japan), 30 μM abrasin (BIK, ChemBridge Corporation) and DMSO and treated for 30 and 120 min. The shoot parts were collected for RNA isolation. All sampling points were performed in three independent experiments. RNA was extracted using RNeasy kit (Qiagene). […] total RNA per array was used to hybridise the ATH1 Affymetrix Arabidopsis arrays according to standard procedure. The overrepresentation analyses were performed using BiNGO software (Maere et al., 2005).
We performed a microarray analysis using the Arabidopsis whole genome chip (Affymetix) to determine whether abrasin activated the expression of BR-inducible genes at transcriptional level. Wild-type Col-0 seedlings were exposed to 1 μM BL, 30 μM ABRASIN and DMSO (mock-treatment) for two time points (30 min and 120 min) and the shoot parts were collected for RNA isolation. The analysis of the variance of the normalized gene expression data took in account the variability parameters affecting the expression level: type of hormone treatment, duration of treatment and the interaction between these two.

O=C(O)CCC(=O)Nc1ccc(Br)cn1 [abrasin, 4-[(5-bromo-2-pyridinyl)amino]-4-oxobutanoic acid]
Fold-change AT4G16563 aspartyl protease family protein: 1.16
Fold-change AT4G16670 expressed protein: 0.79
Fold-change AT4G16780 homeobox-leucine zipper protein 4 (HAT4)/HD-ZIP protein: 0.54
Fold-change AT4G17250 expressed protein: 1.20
Fold-change AT4G17460 homeobox-leucine zipper protein 1 (HAT1)/HD-ZIP protein 1: 0.29
Fold-change AT4G21510 F-box family protein: 1.03
Fold-change AT4G23030 MATE efflux protein-related: 1.60
Fold-change AT4G23070 rhomboid family protein: 2.00
Fold-change AT4G23810 WRKY family transcription factor: 5.76
Fold-change AT4G24160 hydrolase, alpha/beta fold family protein: 1.42
Fold-change AT4G25620 hydroxyproline-rich glycoprotein family protein: 0.51
Fold-change AT4G25780 pathogenesis-related protein: 0.12
Fold-change AT4G27970 C4-dicarboxylate transporter/malic acid transport family protein: 2.43
Fold-change AT4G28240 wound-responsive protein-related: 0.49
Fold-change AT4G28490 leucine-rich repeat transmembrane protein kinase, putative: 1.20
Fold-change AT4G28703 expressed protein: 1.95
Fold-change AT4G28780 GDSL-motif lipase/hydrolase family protein: 1.00
Fold-change AT4G29070 expressed protein: 0.78
Fold-change AT4G30080 transcriptional factor B3 family protein: 0.89
Fold-change AT4G31020 expressed protein: 2.67
Fold-change AT4G32280 auxin-responsive AUX/IAA family protein (IAA29): 0.32
Fold-change AT4G33050 calmodulin-binding family protein: 2.38
Fold-change AT4G33700 CBS domain-containing protein: 0.73
Fold-change AT4G34610 homeodomain-containing protein: 1.02
Fold-change AT4G36110 auxin-responsive protein: 1.16
Fold-change AT4G36780 brassinosteroid signalling positive regulator-related: 0.49
Fold-change AT4G37240 expressed protein: 0.79
Fold-change AT4G37290 expressed protein: 0.95
Fold-change AT4G37590 phototropic-responsive NPH3 family protein: 1.04
Fold-change AT4G38840 auxin-responsive protein (SAUR14): 1.01
Fold-change AT4G38850 auxin-responsive protein (SAUR-AC1): 1.00
Fold-change AT4G38860 auxin-responsive protein (SAUR16): 0.79
Fold-change AT4G39400 brassinosteroid insensitive 1 (BRI1): 0.71
Fold-change AT5G02020 expressed protein: 1.01
Fold-change AT5G05690 cytochrome P450 90A1 (CYP90A1) (CYP90) (CPD): 0.63
Fold-change AT5G07690 myb family transcription factor (MYB29): 0.58
Fold-change AT5G08130 basic helix-loop-helix (bHLH) family protein (BIM2): 0.76
Fold-change AT5G12050 expressed protein: 0.52
Fold-change AT5G13180 no apical meristem (NAM) family protein: 0.77
Fold-change AT5G13740 sugar transporter family protein: 0.81
Fold-change AT5G14730 expressed protein: 0.38
Fold-change AT5G16200 50S ribosomal protein-related: 0.37
Fold-change AT5G16980 NADP-dependent oxidoreductase: 1.11
Fold-change AT5G18750 DNAJ heat shock N-terminal domain-containing protein: 1.91
Fold-change AT5G19200 short-chain dehydrogenase/reductase (SDR) family protein: 1.00
Fold-change AT5G19340 expressed protein: 0.83
Fold-change AT5G24030 C4-dicarboxylate transporter/malic acid transport family protein: 2.35
Fold-change AT5G24660 expressed protein: 2.43
Fold-change AT5G25240 expressed protein: 0.74
Fold-change AT5G25930 leucine-rich repeat family protein: 2.65
Fold-change AT5G27350 sugar-porter family protein 1 (SFP1): 1.07
Fold-change AT5G27670 histone H2A: 0.79
Fold-change AT5G38310 expressed protein: 1.00
Fold-change AT5G38990; AT5G39000 [AT5G38990, protein kinase family protein: 1.40
Fold-change AT5G39050 transferase family protein: 1.49
Fold-change AT5G39610 no apical meristem (NAM) family protein: 0.72
Fold-change AT5G39970 expressed protein: 1.42
Fold-change AT5G42830 transferase family protein: 1.03
Fold-change AT5G47370 homeobox-leucine zipper protein 2 (HAT2): 0.51
Fold-change AT5G48070 putative xyloglucan endotransglycosylase/hydrolase: 1.48
Fold-change AT5G48540 33 kDa secretory protein-related: 2.45
Fold-change AT5G51550 phosphate-responsive 1 family protein: 1.02
Fold-change AT5G54490 calcium-binding EF-hand protein, putative: 0.73
Fold-change AT5G54860 integral membrane transporter family protein: 1.69
Fold-change AT5G55970 zinc finger (C3HC4-type RING finger) family protein: 0.96
Fold-change AT5G56980 expressed protein: 0.43
Fold-change AT5G57190 phosphatidylserine decarboxylase: 1.32
Fold-change AT5G57780 expressed protein: 0.35
Fold-change AT5G59080 expressed protein: 0.46
Fold-change AT5G60200 Dof-type zinc finger domain-containing protein: 1.36
Fold-change AT5G60270 lectin protein kinase family protein: 0.96
Fold-change AT5G60630 expressed protein: 0.99
Fold-change AT5G61600 encodes a member of the ERF (ethylene response factor): 0.53
Fold-change AT5G62360 invertase/pectin methylesterase inhibitor family protein: 0.52
Fold-change AT5G65310 homeobox-leucine zipper protein 5 (HB-5)/HD-ZIP transcription factor 5: 0.90
Fold-change AT5G66420 expressed protein: 0.92
Fold-change AT5G66590 allergen V5/Tpx-1-related family protein: 0.53
Fold-change AT5G67450 zinc finger (C2H2 type) protein 1 (AZF1): 6.17
Fold-change of gene AT4G16140 (proline-rich family protein) (245479_at, Cluster 6): 1.16
Fold-change of gene AT4G15260 (UDP-glucoronosyl/UDP-glucosyl transferase family protein) (245543_at, Cluster 7): 1.41
Fold-change of gene AT5G09440 (phosphate-responsive protein, putative) (245885_at, Cluster 5): 0.38
Fold-change of gene AT1G77380 (amino acid carrier) (246389_at, Cluster 10): 1.32
Fold-change of gene AT5G15740 (expressed protein) (246516_at, Cluster 5): 0.78
Fold-change of gene AT5G65300 (expressed protein) (247177_at, Cluster 5): 0.31
Fold-change of gene AT5G64890 (expressed protein) (247205_at, Cluster 10): 1.01
Fold-change of gene AT5G63790 (no apical meristem (NAM) family protein) (247351_at, Cluster 9): 0.88
Fold-change of gene AT5G62630 (expressed protein) (247444_at, Cluster 7): 1.62
Fold-change of gene AT5G60850 (Dof-type zinc finger domain-containing protein) (247601_at, Cluster 10): 0.51
Fold-change of gene AT5G59510 (expressed protein) (247704_at, Cluster 9): 1.00
Fold-change of gene AT5G58660 (oxidoreductase. 2OG-Fe(II) oxygenase family protein) (247774_at, Cluster 5): 1.15
Fold-change of gene AT5G54120 (expressed protein) (248190_at, Cluster 5): 0.82
Fold-change of gene AT5G54130 (calcium-binding EF hand family protein) (248191_at, Cluster 5): 0.84
Fold-change of gene AT5G52900 (expressed protein) (248282_at, Cluster 6): 1.70
Fold-change of gene AT5G49100 (expressed protein) (248646_at, Cluster 9): 0.72
Fold-change of gene AT5G18060 (auxin-responsive protein) (250012_x_at, Cluster 6): 1.00
Fold-change of gene AT5G09800 (U-box domain-containing protein) (250493_at, Cluster 9): 1.04
Fold-change of gene AT5G08565 (expressed protein) (250537_at, Cluster 8): 0.87
Fold-change of gene AT5G03670 (expressed protein) (250907_at, Cluster 5): 0.61
Fold-change of gene AT5G01740 (expressed protein) (251072_at, Cluster 5): 0.33
Fold-change of gene AT3G63380 (calcium-transporting ATPase) (251176_at, Cluster 10): 0.85
Fold-change of gene AT3G60690 (auxin-responsive family protein) (251342_at, Cluster 9): 0.91
Fold-change of gene AT3G45610 (Dof-type zinc finger domain) (252586_at, Cluster 10): 0.94
Fold-change of gene AT3G44610 (protein kinase family protein) (252646_at, Cluster 5): 0.83
Fold-change of gene AT4G34760 (auxin-responsive family protein) (253255_at, Cluster 6): 1.80
Fold-change of gene AT4G34138 (UDP-glucoronosyl/UDP-glucosyl transferase family protein) (253281_at, Cluster 7): 1.52
Fold-change of gene AT4G31910 (transferase family protein) (253483_at, Cluster 5): 1.46
Fold-change of gene AT4G30410 (expressed protein) (253617_at, Cluster 5): 0.94
Fold-change of gene AT4G30450 (glycine-rich protein) (253629_at, Cluster 5): 0.84
Fold-change of gene AT4G26200 (1-aminocyclopropane-1-carboxylate synthase) (253999_at, Cluster 9): 1.11
Fold-change of gene AT4G03400 (auxin-responsive GH3 family protein) (255403_at, Cluster 6): 0.81
Fold-change of gene AT4G02700 (sulfate transporter) (255443_at, Cluster 7): 1.76
Fold-change of gene AT1G22190 (AP2 domain-containing transcription factor) (255926_at, Cluster 8): 0.45
Fold-change of gene AT1G66140 (zinc finger (C2H2 type) family protein) (256528_at, Cluster 6): 0.87
Fold-change of gene AT3G25655 (expressed protein) (256762_at, Cluster 8): 1.00
Fold-change of gene AT3G21420 (oxidoreductase, 2OG-Fe(II) oxygenase family protein) (256818_at, Cluster 7): 1.13
Fold-change of gene AT3G18280 (protease inhibitor/seed storage/lipid transfer protein) (257066_at, Cluster 5): 1.03
Fold-change of gene AT1G29440 (auxin-responsive family protein) (257506_at, Cluster 6): 0.96
Fold-change of gene AT3G29200 (chorismate mutase, chloroplast (CM1)) (257746_at, Cluster 5): 0.83
Fold-change of gene AT1G13260 (DNA-binding protein RAV1 (RAV1)) (259364_at, Cluster 8): 0.32
Fold-change of gene AT1G29500 (auxin-responsive protein) (259773_at, Cluster 6): 1.01
Fold-change of gene AT1G29510 (auxin-responsive protein) (259783_at, Cluster 6): 1.02
Fold-change of gene AT1G29450 (auxin-responsive protein) (259784_at, Cluster 6): 0.99
Fold-change of gene AT1G29460 (auxin-responsive protein) (259787_at, Cluster 6): 1.23
Fold-change of gene AT1G76690; AT1G76680 ([AT1G76690, 12-oxophytodienoate reductase (OPR2)) (259875_s_at, Cluster 7): 1.95
Fold-change of gene AT1G76620 (expressed protein) (259985_at, Cluster 8): 0.90
Fold-change of gene AT1G63720 (expressed protein) (260243_at, Cluster 10): 0.92
Fold-change of gene AT1G48100 (glycoside hydrolase family 28 protein) (260727_at, Cluster 8): 0.92
Fold-change of gene AT1G12200 (flavin-containing monooxygenase family protein) (261023_at, Cluster 7): 1.44
Fold-change of gene AT1G12845 (expressed protein) (261203_at, Cluster 6): 1.66
Fold-change of gene AT1G15550 (gibberellin 3-beta-dioxygenase) (261768_at, Cluster 6): 1.12
Fold-change of gene AT1G80840 (WRKY family transcription factor) (261892_at, Cluster 9): 0.43
Fold-change of gene AT1G80080 (leucine-rich repeat family protein) (262040_at, Cluster 6): 1.56
Fold-change of gene AT1G80130 (expressed protein) (262050_at, Cluster 8): 0.90
Fold-change of gene AT1G21680 (expressed protein) (262505_at, Cluster 10): 0.82
Fold-change of gene AT1G34245 (expressed protein) (262543_at, Cluster 6): 1.69
Fold-change of gene AT1G78460 (SOUL heme-binding family protein) (263126_at, Cluster 7): 1.01
Fold-change of gene AT1G78820; AT1G78830 ([AT1G78820, curculin-like (mannose-binding) lectin family protein) (264279_s_at, Cluster 7): 1.27
